# Active and inactive are the calls of the source. No rule for the calls is given here.
# Molecular target: Prostaglandin E2 receptor EP2 subtype (Homo sapiens) (UniProt P43116)
# Assay: compounds shifting PGE2 potency at EP2 – cell-based, human EP2, PGE2 EC50 shift, dose response (AID 1421)
# Conditions: EP2-expressing cells, PGE2 EC50 shift by compound
# Sequence of Prostaglandin E2 receptor EP2 subtype (Homo sapiens) (P43116 whole entry, looked up): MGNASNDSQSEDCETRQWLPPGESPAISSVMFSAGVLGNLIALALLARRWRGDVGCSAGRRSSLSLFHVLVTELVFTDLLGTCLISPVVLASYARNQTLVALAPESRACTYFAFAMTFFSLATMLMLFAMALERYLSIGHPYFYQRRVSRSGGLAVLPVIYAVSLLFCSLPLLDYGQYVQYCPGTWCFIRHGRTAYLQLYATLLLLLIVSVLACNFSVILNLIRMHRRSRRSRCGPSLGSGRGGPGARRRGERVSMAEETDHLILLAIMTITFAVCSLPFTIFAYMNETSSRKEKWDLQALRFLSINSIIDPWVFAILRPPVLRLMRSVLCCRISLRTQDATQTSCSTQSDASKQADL
row,SMILES,outcome
1,COc1cccc2cc(/C(=N/O)c3ccccc3)oc12,active
2,CC(C)NC(=O)NC(=O)CSc1nnc(COc2ccccc2F)n1C(C)C1CC2CCC1C2 (stereo not drawn),active
3,C(=N\N(Cc1ccccc1)c1ccccc1)/c1cccnc1,active
4,COc1cc(-c2nc(-c3cccc(C(F)(F)F)c3)no2)cc(OC)c1OC,active
5,CSc1ncc2c(n1)-c1cc(C)ccc1SC2,active
6,C(=N/n1c2ccccc2c2ccccc21)/c1ccco1,active
7,COC1(C)CC2C(CC1OC(=O)c1cc([N+](=O)[O-])cc([N+](=O)[O-])c1)C2(C)C (stereo not drawn),active

# Same assay, conditions: EP2-expressing cells, PGE2 EC50 shift by compound; measured here: PGE2 EC50 at 6.7 uM compound
row,SMILES,PGE2 EC50 with compound
1,O=c1cc(N2CCCCC2)c(-c2ccccc2)nn1Cc1ccccc1,1.25 nM
2,COc1cccc2cc(/C(=N/O)c3ccccc3)oc12,1.51 nM
3,CC(C)NC(=O)NC(=O)CSc1nnc(COc2ccccc2F)n1C(C)C1CC2CCC1C2 (stereo not drawn),1.06 nM
4,CCOC(=O)C1=C(CC)Nc2ccccc2N=C1NC(=O)c1oc2ccccc2c1C,1.19 nM
5,CCOC(=O)C1=C(N)OC2=C(C(=O)CC(C)(C)C2)C1c1ccc(CC)s1 (stereo not drawn),0.96 nM
6,CCCN(CCC)C(C)C(=O)NCC1(c2ccccc2)CCCC1 (stereo not drawn),0.94 nM
7,CCOc1ccc(NC(=O)CSc2ncnc3c2sc2ccccc23)cc1,2.67 nM
8,Cc1cccc(OCc2n[nH]c(=S)n2Cc2ccccc2)c1,1.31 nM
9,S=c1[nH]nc(Cc2ccccc2)n1Cc1ccco1,2.65 nM
10,CCOC(=O)c1c(NC(=O)CC(C)C)sc(C(C)=O)c1C,1.25 nM
11,O=c1cc(N2CCCCC2)c(-c2ccccc2)nn1Cc1cccc(F)c1,0.33 nM
12,CCOC(=O)Cc1csc(NC(=O)c2cc(=O)c3ccccc3o2)n1,1.36 nM
13,C(=N\N(Cc1ccccc1)c1ccccc1)/c1cccnc1,1.34 nM
14,O=C(Nc1ccccc1)/C(=C/c1ccccc1)c1ccccc1,2.56 nM
15,CCN(CC)c1nc(C#N)nc(N(CC)CC)n1,0.95 nM
16,O=c1c2ccccc2c(-c2ccc(Br)cc2)nn1Cc1ccccc1,0.78 nM
17,Cc1noc(C)c1CSc1nc2ccccc2c(=O)n1-c1ccc(F)cc1F,1.09 nM
18,CCOc1ccccc1Cn1c(=O)oc2ccc(C)cc21,1.09 nM
19,CCOC(=O)c1ccc(CN(Cc2ccc(C)cc2)S(=O)(=O)c2cccc([N+](=O)[O-])c2)cc1,1.62 nM
20,Cc1ccc(NP(=O)(Oc2ccccc2F)Oc2ccccc2F)cc1C,1.35 nM
21,CCOC(=O)c1c(N)nn(C(=O)C(C)(C)C)c1-c1ccccc1,0.96 nM

row,SMILES,PGE2 EC50 with compound
1,C[N+]1(C)CCOC(O)(c2ccc(-c3ccc(C4(O)C[N+](C)(C)CCO4)cc3)cc2)C1 (stereo not drawn),0.14 nM
2,COc1cc(-c2nc(-c3cccc(C(F)(F)F)c3)no2)cc(OC)c1OC,0.89 nM
3,O=C(Nc1cccc(Cl)c1N1CCCC1)c1ccc(Br)o1,1.61 nM
4,O=C(CNCc1ccccc1Cl)Nc1ccccc1N1CCCCC1,0.64 nM
5,CSc1ncc2c(n1)-c1cc(C)ccc1SC2,0.93 nM
6,C(=N/n1c2ccccc2c2ccccc21)/c1ccco1,1.08 nM
7,c1ccc(-c2noc(-c3cccc4ccccc34)n2)cc1,1.18 nM
8,CSc1nc(Oc2ccccc2)c2sccc2n1,0.93 nM
9,O=C(C(c1ccccc1)c1ccccc1)N1CCCc2ccccc21,0.71 nM
10,O=C(CSc1nc2ccccc2o1)Nc1ccccc1N1CCCCCC1,0.78 nM
11,Cc1ccc(-c2nnc(N3CCC(C)CC3)c3ccccc23)cc1,1.39 nM
12,CCN1C(c2ccccc2)C(C)C(=O)C(C)C1c1ccccc1 (stereo not drawn),0.85 nM
13,Nc1nc(Cc2ccccc2)nc(Cc2ccccc2)c1-c1ccccc1,0.79 nM
14,Cc1cccc(-c2csc(N)c2C(=O)OC(C)C)c1,0.97 nM
15,Cc1ccc(-n2c(SCC(=O)Nc3ccc4c(c3)OCO4)nnc2-c2ccoc2C)cc1,1.18 nM
16,Cc1onc(-c2c(F)cccc2Cl)c1C(=O)OCn1nnc2ccccc2c1=O,0.92 nM
17,CCN1C(=O)/C(=C2/C=CC=CN2C)SC1=S,1.64 nM
18,COC1(C)CC2C(CC1OC(=O)c1cc([N+](=O)[O-])cc([N+](=O)[O-])c1)C2(C)C (stereo not drawn),2.79 nM
19,O=C(NCc1ccco1)C(c1cccs1)N(C(=O)Cc1cccs1)c1ccccc1 (stereo not drawn),1.49 nM
20,CCOC(=O)c1c(NC(=O)CSc2nnnn2CC)sc(C)c1C,0.81 nM

# From PubChem BioAssay AID1421 (Emory University Molecular Libraries Screening Center, 2008)
